Literature values as cited in US20070092572A1, “Bone cement compositions and the like comprising an RNAIII-inhibiting peptide” (priority 2005, published 2007).
Read-outs that look alike come from different tables or passages of the source. Where no end group is shown, it is not given here.

Experiments:
S. aureus LS-1 [1] = conditions: Arthritis, mouse, strain LS-1, +RIP
S. aureus LS-1 [2] = conditions: Sepsis, mouse, strain LS-1, +RIP
S. aureus Newbould/AE-1 = conditions: Mastitis, cow, strain Newbould/AE-1, +RIP
S. aureus 8325-4 = conditions: Keratitis, rabbit, strain 8325-4, +RIP
S. aureus Smith diffuse = conditions: Cellulitis/sepsis, mouse, strain Smith diffuse, +RIP
S. aureus MS = conditions: Osteomyelitis, rabbit, strain MS, +RIP
[3] = tested on: MRSA, MRSE, VISA, VISE, GISA, GISE, MSSA, MSSE; conditions: Graft injection, rat, +RIP
S. aureus = conditions: non-amidated versus amide form

YSPWTNF(-NH2) (YSPWTNF-NH2) [RIP, amide form of a synthetic RIP analogue]
% animals disease free (S. aureus LS-1 [1]): 60%
% animals disease free (S. aureus LS-1 [2]): 44%
% animals disease free (S. aureus Newbould/AE-1): 70-100%
% animals disease free (S. aureus 8325-4): 40%
% animals disease free (S. aureus Smith diffuse): Up to 100%
% animals disease free (S. aureus MS): 58%
% animals disease free [3]: Up to 100%

non-amidated form of synthetic RIP: non-amidated form of the synthetic RIP analogue YSPWTNF (YSPWTNF-OH)
activity of the peptide form (S. aureus): inactive
